Source: patent publication US10399987B2, “TGF beta receptor antagonists” (BRISTOL-MYERS SQUIBB COMPANY, priority 2015, dated 2019)

What follows are molecules tested against HIS-TGFβR1 T204D (Homo sapiens (Human), UniProt P36897, T204D) (assay: TGFβR1 HIS T204D HTRF assay (labeled small molecule probe, anti-HIS detection antibody)). Conditions: 1 nM HIS-TGFβR1 T204D, probe at Kd, 1 hour at room temperature, eleven concentrations.
Format: binding

HIS-TGFβR1 T204D, sequence (P36897 34-503 T204D): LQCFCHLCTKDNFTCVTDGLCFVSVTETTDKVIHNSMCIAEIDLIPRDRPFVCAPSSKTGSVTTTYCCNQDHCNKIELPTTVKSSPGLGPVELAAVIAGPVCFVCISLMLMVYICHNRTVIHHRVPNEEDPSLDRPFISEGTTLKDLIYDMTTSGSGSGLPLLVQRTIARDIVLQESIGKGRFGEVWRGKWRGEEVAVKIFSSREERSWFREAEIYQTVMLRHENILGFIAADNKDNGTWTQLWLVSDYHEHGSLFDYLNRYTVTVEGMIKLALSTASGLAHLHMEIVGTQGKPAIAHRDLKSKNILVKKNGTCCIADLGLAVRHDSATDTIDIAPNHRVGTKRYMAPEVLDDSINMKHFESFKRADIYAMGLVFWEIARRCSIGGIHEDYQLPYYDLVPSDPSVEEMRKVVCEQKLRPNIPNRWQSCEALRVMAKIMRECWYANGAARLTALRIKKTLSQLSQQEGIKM

| Structure (SMILES) | IC50 [nM] |
| --- | --- |
| FC(F)(F)c1cccc(-c2nc(Nc3ccncc3Cl)c3cc[nH]c3n2)n1 [Example 40, 3-chloro-N-{2-[6-(trifluoromethyl)pyridin-2-yl]-7H-pyrrolo[2,3-d]pyrimidin-4-yl}pyridin-4-amine] | 0.6 |
| O=C(Nc1cc(Nc2nc(-c3cccc(C(F)(F)F)n3)nc3[nH]ccc23)ccn1)C1CC1 [Example 41, N-[4-({2-[6-(trifluoromethyl)pyridin-2-yl]-7H-pyrrolo[2,3-d]pyrimidin-4-yl}amino)pyridin-2-yl]cyclopropanecarboxamide] | 0.87 |
| COc1cnccc1Nc1nc(-c2cccc(C(F)(F)F)n2)nc2[nH]ccc12 [Example 42, 3-methoxy-N-{2-[6-(trifluoromethyl)pyridin-2-yl]-7H-pyrrolo[2,3-d]pyrimidin-4-yl}pyridin-4-amine] | 1.7 |
| CC(=O)Nc1cc(Nc2nc(-c3cccc(C(F)F)n3)nc3[nH]cc(CNCC(C)(C)O)c23)c(F)cn1 [Example 44, N-[4-({2-[6-(difluoromethyl)pyridin-2-yl]-5-{[(2-hydroxy-2-methylpropyl)amino]methyl}-7H-pyrrolo[2,3-d]pyrimidin-4-yl}amino)-5-fluoropyridin-2-yl]acetamide] | 2.6 |
| Cc1cnccc1Nc1nc(-c2ccc(F)c(C)n2)nc2[nH]ccc12 [Example 45, N-[2-(5-fluoro-6-methylpyridin-2-yl)-7H-pyrrolo[2,3-d]pyrimidin-4-yl]-3-methylpyridin-4-amine] | 1 |
| COc1cnccc1Nc1nc(-c2ccc(F)c(C)n2)nc2[nH]ccc12 [Example 46, N-[2-(5-fluoro-6-methylpyridin-2-yl)-7H-pyrrolo[2,3-d]pyrimidin-4-yl]-3-methoxypyridin-4-amine] | 0.79 |
| Cc1nc(-c2nc(Nc3ccnc(NC(=O)C4CC4)c3)c3cc[nH]c3n2)ccc1F [Example 47, N-(4-{[2-(5-fluoro-6-methylpyridin-2-yl)-7H-pyrrolo[2,3-d]pyrimidin-4-yl]amino}pyridin-2-yl)cyclopropanecarboxamide] | 1.4 |
| CN(c1ccncc1)c1nc(-c2cccc(NS(C)(=O)=O)n2)nc2[nH]ccc12 [Example 48, N-(6-{4-[methyl(pyridin-4-yl)amino]-7H-pyrrolo[2,3-d]pyrimidin-2-yl}pyridin-2-yl)methanesulfonamide] | 4.3 |
| CS(=O)(=O)Nc1cccc(-c2nc(Nc3ccncc3Cl)c3cc[nH]c3n2)n1 [Example 49, N-(6-{4-[(3-chloropyridin-4-yl)amino]-7H-pyrrolo[2,3-d]pyrimidin-2-yl}pyridin-2-yl)methanesulfonamide] | 2.2 |
